66 compounds from PubChem BioAssay AID743450 (Broad Institute, 2014) can be followed below.

Where “and” joins values, the source holds several entries; their conditions need not be identical. Equal entries are not always repeated. Inconclusive results are not listed. Calls of active or inactive are those of the source. The rule behind the calls is not given here.

The nature of this test: Starved TB CFU, imaging assay, inhibitor dose response, confirmatory stage (AID 743450). To be noted: for activity change, negative = inhibition: at 26 µM (top of the series).

With `Cc1ccc2c(c1)nc(NC(=O)c1ccccc1)n2C`, the AC90 is 13.6 µM.
With `COCCn1c(NC(=O)c2ccccc2)nc2ccccc21`, the AC90 is 2.23 µM.
Regarding `Cn1c(NC(=O)c2ccc(Cl)cc2)nc2ccccc21`, the AC90 is 12.3 µM.
Turning to `CCCn1c(NC(=O)c2ccccc2)nc2ccccc21`, the AC90 was 6.02 µM.
Still for that read-out and setting: the figure for `Cn1c(NC(=O)c2ccccc2)nc2cc(Cl)ccc21` is 6.02 µM; for `Cn1c(NC(=O)c2ccccc2)nc2ccc3ncccc3c21` it is 6.35 µM; for `Cn1c(NC(=O)c2cccs2)nc2ccccc21` it is 4.16 µM and 1.65 µM.
On the same count and under the same terms, as for `CCCCn1c(NC(=O)c2ccccc2)nc2ccccc21`, the figure is 7.88 µM.
As to `CCn1c(NC(=O)c2ccccc2)nc2ccccc21`, the AC90 was 5.52 µM.
The same measure, in the same setting: the figure for `O=C(Nc1nc2ccccc2n1C1CC1)c1ccccc1` is 4.84 µM; for `Cn1c(NC(=O)Cc2ccccc2)nc2ccccc21` it is 3.85 µM; for `Cn1c(NC(=O)c2ccc(C(C)(C)C)cc2)nc2ccccc21` it is 6.68 µM.
Same read-out and setting: as for `Cn1c(NC(=O)c2ccccc2)nc2cc(C(F)(F)F)ccc21`, the figure is 6.01 µM; as for `Cn1c(NC(=O)c2cccc(OC(F)F)c2)nc2ccccc21`, 22.3 µM; as for `Cn1c(NC(=O)c2ccccc2F)nc2ccccc21`, 4.84 µM.
For `Cn1c(NC(=O)c2ccccc2)nc2c3nccnc3ccc21`, the AC90 was 1.37 µM.
On the same count and under the same terms, the figure for `Cn1c(NC(=O)c2ccccc2)nc2c3ncccc3ccc21` is 1.18 µM.
Turning to `O=C(Nc1nc2ccccc2[nH]1)c1ccccc1`, the AC90 is 12.3 µM.
On the same count and under the same terms, as for `O=C(Nc1nc2ccccc2n1CCN1CCCCC1)c1ccccc1`, the figure is 12.3 µM.
`O=C(Nc1nc2ccccc2n1-c1ccccc1)c1ccccc1`: the AC90 was > 26 µM (inactive).
The same measure, in the same setting: the figure for `Cn1c(NC(=O)c2cccc(Cl)c2)nc2ccccc21` is 5.55 µM; for `Cn1c(NC(=O)c2ccccc2NC(=O)c2ccccc2)nc2ccccc21` it is 5.02 µM.
As for `CCn1c(NC(=O)c2cnn(Cc3ccccc3)c2)nc2ccccc21`, the activity change, negative = inhibition is -74% (inactive).
For the compound `Cn1c(NC(=O)c2ccc(OC(F)(F)F)cc2)nc2ccccc21`, the AC90 is 6.61 µM.
The same measure, in the same setting: the figure for `COc1ccccc1C(=O)Nc1nc2ccccc2n1C` is 5.86 µM; for `CN(C)c1cccc(C(=O)Nc2nc3ccccc3n2C)c1` it is 5.34 µM; for `Cn1c(NC(=O)c2ccc(F)cc2)nc2ccccc21` it is 5.03 µM.
On the same count and under the same terms, as for `Cn1c(NC(=O)c2ccccn2)nc2ccccc21`, the figure is 5.17 µM.
Consider `Cn1c(NC(=O)c2ccccc2)nc2ccc(C#N)cc21`, for which the activity change, negative = inhibition is -66% (inactive).
In the case of `Cn1c(NC(=O)c2ccccc2Cl)nc2ccccc21`, the AC90 is 4.64 µM.
For the compound `Cc1ccc(C(=O)Nc2nc3ccccc3n2C)cc1`, the AC90 was 4.71 µM.
Regarding `Cn1c(NC(=O)c2cccc3ccccc23)nc2ccccc21`, the AC90 is 2.81 µM.
On the same count and under the same terms, as for `Cn1c(NC(=O)c2ccccc2)nc2c(C#N)cccc21`, the figure is 5.26 µM; as for `Cn1c(NC(=O)c2ccccc2)nc2c3ccncc3ccc21`, 6.92 µM.
In the case of `Cn1c(NC(=O)c2ccccc2)nc2cccc(Cl)c21`, the AC90 was 10.2 µM.
For `CC(C)n1c(NC(=O)c2ccccc2)nc2ccccc21`, the AC90 is 6.68 µM.
As to `COc1cccc2c1nc(NC(=O)c1ccccc1)n2C`, the AC90 was 3.66 µM.
Same read-out and setting: the figure for `CN(C(=O)c1ccccc1)c1nc2ccccc2n1C` is > 26 µM (inactive); for `Cn1c(NC(=O)c2ccccc2)nc2c(F)cccc21` it is 10.1 µM; for `COc1cccc(C(=O)Nc2nc3ccccc3n2C)c1` it is 6.18 µM.
Same read-out and setting: as for `Cc1cccc(C(=O)Nc2nc3ccccc3n2C)c1`, the figure is 8.9 µM.
As for `Cn1c(N)nc2ccccc21`, the activity change, negative = inhibition is 3% (inactive).
As to `Cn1c(NC(=O)c2ccccc2)nc2ccc(F)cc21`, the AC90 was 4.72 µM.
As for `Cn1c(NC(=O)c2ccncc2)nc2ccccc21`, the AC90 was 15 µM.
`O=C(Nc1nc2ccccc2n1CCN1CCOCC1)c1ccccc1`: the activity change, negative = inhibition is -51% (inactive).
`Cn1c(NC(=O)c2ccccc2)nc2cc(F)ccc21`: the AC90 was 4.55 µM.
Regarding `Cn1c(NC(=O)c2ccccc2C(F)(F)F)nc2ccccc21`, the AC90 was 7.01 µM.
On to `Cn1c(NC(=O)c2cccc(C(F)(F)F)c2)nc2ccccc21`, for which the activity change, negative = inhibition is -84% (inactive).
Turning to `Cn1c(NC(=O)c2cccc(F)c2)nc2ccccc21`, the AC90 is 7.51 µM.
On to `Cn1c(NC(=O)c2cccnc2)nc2ccccc21`, for which the AC90 is 5.75 µM.
Consider `Cn1c(NC(=O)c2ccccc2)nc2c3cccnc3ccc21`, for which the AC90 is 12 µM.
The same measure, in the same setting: the figure for `CCN(CC)CCn1c(NC(=O)c2ccccc2)nc2ccccc21` is 7.31 µM; for `Cn1c(NC(=O)c2ccc3ccccc3c2)nc2ccccc21` it is 6.5 µM.
Turning to `Cn1c(NC(=O)c2ccccc2)nc2ccccc21`, the AC90 is 4.27 µM and 4.2 µM.
Same read-out and setting: the figure for `O=C(Nc1nc2ccccc2n1C1CCCCC1)c1ccccc1` is 8.07 µM; for `Cn1c(NC(=O)c2ccc(-c3ccccc3)cc2)nc2ccccc21` it is 6.25 µM; for `COc1ccc2c(c1)nc(NC(=O)c1ccccc1)n2C` it is 4.26 µM.
On the same count and under the same terms, as for `CC(C)Oc1ccc(C(=O)Nc2nc3ccccc3n2C)cc1`, the figure is 6.98 µM; as for `Cn1c(NC(=O)c2ccccc2)nc2cc(C#N)ccc21`, 7.91 µM.
Take `Cn1c(NC(=O)c2ccccc2)nc2ncccc21`: the AC90 was 2.23 µM.
Take `Cn1c(NC(=O)c2ccccc2)nc2cccnc21`: the activity change, negative = inhibition is -100% (inactive).
Consider `O=C(Nc1nc2ccccc2n1Cc1ccccc1)c1ccccc1`, for which the AC90 was 6.74 µM.
Take `COc1ccc(C(=O)Nc2nc3ccccc3n2C)cc1OC`: the AC90 is 11.3 µM.
For `Cn1c(NC(=O)c2ccc(F)c(F)c2)nc2ccccc21`, the AC90 was 19.9 µM.
On the same count and under the same terms, as for `COc1ccc(C(=O)Nc2nc3ccccc3n2C)cc1`, the figure is 3.71 µM.
Still for that read-out and setting: as for `Cc1cc(C(=O)Nc2nc3ccccc3n2C)c(C)o1`, the figure is 9.93 µM.
